# From PMC10088252
# Test: Plasma PK after multiple doses for 28 days, Part A (PKAS), routine PK analysis
# Type: in vivo, human
# Procedure: Serial peripheral blood samples were collected at pre-dose on Cycle 1 Day 8, Cycle 1 Day 15 and Cycle 1 Day 22 for the trough concentration (Ctrough) obtained during the dosing interval. […] After Cycle 1, the Ctrough was measured every 4 or 8 or 12 weeks. The whole blood (3 mL) was taken intravenously and placed in sodium heparin tubes, gently turned over 15 times, and centrifuged within 1 h (4 °C 3000 rpm for 10 min). Two portions of the centrifuged upper plasma should be transferred to 1.5 mL centrifuge tubes with identification labels and stored at -80 °C. The following PK parameters were assessed: time to maximum plasma concentration at steady state (Tmax,ss), overall body clearance at steady state for extravascular dosage (CLss/F), terminal half-life (T1/2), plasma Ctrough observed in Cycle 1 at steady state, total volume of drug distribution at steady state according to the terminal phase (Vz,ss/F), AUC over a dosing interval (AUCtau), ratio of metabolites to parent drug calculated based on AUCtau (MP ratio).
# Statistical analyses were performed using SAS version 9.4 (SAS Institute, Cary, NC, USA). Age was expressed as median (range), and categorical variables were expressed as frequency (percentage). The 95% CIs of ORR and DCR were calculated using Clopper-Pearson method. The 95% CIs of PFS and OS were calculated using Brookmeyer-Crowley method. PK parameters were expressed as mean (standard deviation) or median (range), and analyzed using Phoenix version 8.0 (Certara, LP, Princeton, NJ, USA). No imputation method was performed for missing data.
smiles,measurement,setting,value
O=C(Nc1ccc(Oc2ccnc3c2CCN3)c(F)c1)c1c[nH]cc(-c2ccc(F)cc2)c1=O,"AUCtau, mean (SD)","300 mg QD (n=7), 28 days",7680.0 (4120.0) h × ng/mL
same,"CLss/F, mean (SD)","300 mg QD (n=7), 28 days",50.4 (25.6) L/h
same,"Cmax,ss, mean (SD)","300 mg QD (n=7), 28 days",794.0 (370.0) ng/mL
same,"Cmin,ss, mean (SD)","300 mg QD (n=7), 28 days",104.0 (49.0) ng/mL
same,"Ctrough, mean (SD)","300 mg QD (n=7), 28 days",113.5 (55.0) ng/mL
same,"T1/2, mean (SD)","300 mg QD (n=7), 28 days",11.2 (2.8) h
same,"Tmax,ss, mean (SD)","300 mg QD (n=7), 28 days",3.9 (2.0) h
same,"Vz,ss/F, mean (SD)","300 mg QD (n=7), 28 days",781.0 (357.0) L
same,"AUCtau, mean (SD)","450 mg QD (n=7), 28 days","11,000.0 (5970.0) h × ng/mL"
same,"CLss/F, mean (SD)","450 mg QD (n=7), 28 days",57.6 (39.5) L/h
same,"Cmax,ss, mean (SD)","450 mg QD (n=7), 28 days",932.0 (480.0) ng/mL
same,"Cmin,ss, mean (SD)","450 mg QD (n=7), 28 days",168.0 (127.0) ng/mL
same,"Ctrough, mean (SD)","450 mg QD (n=7), 28 days",184.1 (131.2) ng/mL
same,"T1/2, mean (SD)","450 mg QD (n=7), 28 days",11.8 (4.8) h
same,"Tmax,ss, mean (SD)","450 mg QD (n=7), 28 days",4.0 (1.0) h
same,"Vz,ss/F, mean (SD)","450 mg QD (n=7), 28 days",1050.0 (974.0) L
same,"AUCtau, mean (SD)","600 mg QD (n=7), 28 days","10,100.0 (5350.0) h × ng/mL"
same,"CLss/F, mean (SD)","600 mg QD (n=7), 28 days",83.2 (58.9) L/h
same,"Cmax,ss, mean (SD)","600 mg QD (n=7), 28 days",788.0 (394.0) ng/mL
same,"Cmin,ss, mean (SD)","600 mg QD (n=7), 28 days",157.0 (89.6) ng/mL
same,"Ctrough, mean (SD)","600 mg QD (n=7), 28 days",203.9 (99.2) ng/mL
same,"T1/2, mean (SD)","600 mg QD (n=7), 28 days",12.7 (4.8) h
same,"Tmax,ss, mean (SD)","600 mg QD (n=7), 28 days",3.9 (2.0) h
same,"Vz,ss/F, mean (SD)","600 mg QD (n=7), 28 days",1780.0 (2080.0) L
same,"Ctrough, mean (SD)","Cycle 1 Day 8 (192 h), 300 mg QD (n=7)",163.0 (241.5) ng/mL
same,"Ctrough, mean (SD)","Cycle 1 Day 8 (192 h), 450 mg QD (n=7)",178.1 (128.0) ng/mL
same,"Ctrough, mean (SD)","Cycle 1 Day 8 (192 h), 600 mg QD (n=7)",165.6 (66.6) ng/mL
same,"Ctrough, mean (SD)","Cycle 1 Day 15 (360 h), 300 mg QD (n=7)",161.5 (126.3) ng/mL
same,"Ctrough, mean (SD)","Cycle 1 Day 15 (360 h), 450 mg QD (n=7)",216.5 (111.8) ng/mL
same,"Ctrough, mean (SD)","Cycle 1 Day 15 (360 h), 600 mg QD (n=7)",188.7 (67.3) ng/mL
same,"Ctrough, mean (SD)","Cycle 1 Day 22 (528 h), 300 mg QD (n=7)",124.2 (126.2) ng/mL
same,"Ctrough, mean (SD)","Cycle 1 Day 22 (528 h), 450 mg QD (n=7)",236.3 (83.4) ng/mL
same,"Ctrough, mean (SD)","Cycle 1 Day 22 (528 h), 600 mg QD (n=7)",164.1 (65.7) ng/mL
same,"median Tmax,ss","among 300, 450, 600 mg QD cohorts, 28 days",4.0 h
same,time to steady state,continuous administration,seven
